The source of these data is US7507834B2, “Substituted anilinopyrazoles” (SmithKline Beechan Corporation, priority 2003, dated 2009).

The assay deals with CDK2 (Homo sapiens, UniProt P24941). The experiment in a line: CDK2 substrate phosphorylation assay. The following applies: CDK2 expressed in baculovirus system; peptide Biotin-aminohexyl-ARRPMSPKKKA-NH2, [g-32P]ATP; pIC50 = −log10(IC50). It counts as biochemical. Here is the method: The compounds of the present invention have valuable pharmacologic properties. Different compounds from this class are particularly effective at inhibiting CDK2. Substrate phosphorylation assays were carried out as follows:
Cyclin dependent protein kinase 2 assays utilized the peptide Biotin-aminohexyl-ARRPMSPKKKA-NH2 (SEQ ID NO:1) as phosphoryl group acceptor. CDK2 was expressed utilizing a baculovirus expression system and was partially purified to comprise 20-80% of total protein, with no detectable competing reactions present. Typically, assays were performed by incubating enzyme (0.2-10 nM), with and without inhibitor, peptide substrate ([…]), [g-32P]ATP ([…]), and 10-20 mM Mg2+ for periods of time generally within the range 10-120 minutes. Reactions were terminated with 0.2-2 volumes of either 20% acetic acid or 50-100 mM EDTA buffered to pH 7 (substrate consumption <20%). The buffer employed in enzyme assay was 100 mM HEPES pH 7.5 containing 0.1 mg/mL BSA and 5% DMSO. Inhibitors were diluted in 100% DMSO prior to addition into the assay. Detection of peptide phosphorylation was accomplished by scintillation counting following either collection of peptide onto phosphocellulose filters (for reactions stopped with acetic acid), collection of peptide in wells of 96 well plates coated with Streptavidin (Pierce) (reactions were stopped with EDTA), or addition of Avidin coated Scintillant impregnated beads (Scintillation Proximity Assays from Amersham, reactions were stopped with EDTA). Counts detected by any of these methodologies minus the appropriate background (assays with additional 40 mM EDTA or lacking peptide substrate) were assumed to be proportional to the reaction initial rates, and IC50s were determined by a least squares fit to the equation CPM=Vmax*(1−([I]/(K+[I])))+nsb, or −pIC50s were determined by a fit to the equation CPM=nsb+(Vmax−nsb)/(1+(x/10x−pIC50)), where nsb are the background counts […]. Radioactivity was determined by liquid scintillation counting.

Regarding `NS(=O)(=O)c1ccc(Nc2cc(-c3cccc(NC(=O)Nc4cc(C(F)(F)F)ccc4F)c3)n[nH]2)cc1` [Compound Il, 4-(5-{3-[3-(2-Fluoro-5-trifluoromethyl-phenyl)-ureido]-phenyl}-2H-pyrazol-3-ylamino)-benzenesulfonamide], the IC50 – broadly, the concentration at which inhibition is half-maximal – was 10.2 to 100 nM.

Molecule `Nc1cccc(-c2cc(Nc3ccc(S(N)(=O)=O)cc3)[nH]n2)c1` [Compound Ij, 4-[5-(3-Amino-phenyl)-2H-pyrazol-3-ylamino]-benzenesulfonamide] gave an IC50 of 1.02 to 10 nM. Regarding `Nc1ccc(-c2cc(Nc3ccc(S(N)(=O)=O)cc3)[nH]n2)cc1` [Ih, 4-[5-(4-Amino-phenyl)-2H-pyrazol-3-ylamino]-benzenesulfonamide], the IC50 was 0.102 to 1 nM. In the case of `NS(=O)(=O)c1ccc(Nc2cc(-c3cccc(N4CCOCC4)c3)n[nH]2)cc1` [In, 4-[5-(3-Morpholin-4-yl-phenyl)-2H-pyrazol-3-ylamino]-benzenesulfonamide] it was 102 to 20000 nM.
